In PubChem BioAssay (NCI):
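Interpolation was linear, between the two tested concentrations surrounding the appropriate level; five concentrations were tested over 48 hours in 96-well plates. Here, GI50 denotes the concentration required for 50% inhibition of growth. TGI marks complete inhibition of growth.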

Legend:
Assay in all cases: growth of human tumour cells (NCI), 48 h; in the data active means GI50 below about 0.43 µM; inactive means the rest
COLO 205 colon = test system: COLO 205 colon
TK-10 renal = test system: TK-10 renal
NCI-H226 lung = test system: NCI-H226 lung
M14 melanoma = test system: M14 melanoma
KM12 colon = test system: KM12 colon
PC-3 prostate = test system: PC-3 prostate
A498 renal = test system: A498 renal
A549 NSCLC = test system: A549 NSCLC
IGROV1 ovarian = test system: IGROV1 ovarian
SR leukemia = test system: SR leukemia
786-0 renal = test system: 786-0 renal
T-47D breast = test system: T-47D breast
NCI-H522 lung = test system: NCI-H522 lung
SF-539 CNS = test system: SF-539 CNS
SNB-75 CNS = test system: SNB-75 CNS
HCT-116 colon = test system: HCT-116 colon
BT-549 breast = test system: BT-549 breast
HT29 colon = test system: HT29 colon
HCT-15 colon = test system: HCT-15 colon
NCI-H460 lung = test system: NCI-H460 lung
HOP-92 NSCLC = test system: HOP-92 NSCLC
UACC-62 melanoma = test system: UACC-62 melanoma
SK-MEL-2 melanoma = test system: SK-MEL-2 melanoma
U251 CNS = test system: U251 CNS
MDA-MB-231 breast = test system: MDA-MB-231 breast
HCC-2998 colon = test system: HCC-2998 colon
ACHN renal = test system: ACHN renal
EKVX NSCLC = test system: EKVX NSCLC
HL-60(TB) leukemia = test system: HL-60(TB) leukemia
RPMI-8226 leukemia = test system: RPMI-8226 leukemia
OVCAR-8 ovarian = test system: OVCAR-8 ovarian
DU-145 prostate = test system: DU-145 prostate
NCI/ADR-RES ovarian = test system: NCI/ADR-RES ovarian
UO-31 renal = test system: UO-31 renal
MOLT-4 leukemia = test system: MOLT-4 leukemia
SF-268 CNS = test system: SF-268 CNS
OVCAR-3 ovarian = test system: OVCAR-3 ovarian
SK-MEL-5 melanoma = test system: SK-MEL-5 melanoma
SF-295 CNS = test system: SF-295 CNS
HOP-62 NSCLC = test system: HOP-62 NSCLC
LOX IMVI melanoma = test system: LOX IMVI melanoma
SK-MEL-28 melanoma = test system: SK-MEL-28 melanoma
OVCAR-4 ovarian = test system: OVCAR-4 ovarian
CCRF-CEM leukemia = test system: CCRF-CEM leukemia
CAKI-1 renal = test system: CAKI-1 renal
SN12C renal = test system: SN12C renal
OVCAR-5 ovarian = test system: OVCAR-5 ovarian
SNB-19 CNS = test system: SNB-19 CNS
K-562 leukemia = test system: K-562 leukemia
UACC-257 melanoma = test system: UACC-257 melanoma
NCI-H23 lung = test system: NCI-H23 lung
MCF7 breast = test system: MCF7 breast
SW-620 colon = test system: SW-620 colon
MDA-MB-435 = test system: MDA-MB-435
HS 578T breast = test system: HS 578T breast

CCOC(=O)c1c(C)n2c(=O)cc(C)c3c(O)c(O)cc1c32
16.7 µM: TGI (NCI-H522 lung)
9.94 µM: TGI (OVCAR-3 ovarian)
30.5 µM: TGI (U251 CNS) | TGI (LOX IMVI melanoma)
79.7 µM: TGI (BT-549 breast)
29.3 µM: TGI (UACC-62 melanoma)
24.6 µM: TGI (SN12C renal)
15.2 µM: TGI (MOLT-4 leukemia)
31.6 µM: TGI (HOP-92 NSCLC)
6.05 µM: TGI (CCRF-CEM leukemia)
24.1 µM: TGI (SK-MEL-5 melanoma)
33.3 µM: TGI (K-562 leukemia)
15.1 µM: TGI (RPMI-8226 leukemia)
55.3 µM: TGI (SF-539 CNS)
17.2 µM: TGI (HL-60(TB) leukemia)
87 µM: TGI (IGROV1 ovarian)
> 100 µM: TGI (COLO 205 colon) | TGI (TK-10 renal) | TGI (M14 melanoma) | TGI (PC-3 prostate) | TGI (A498 renal) | TGI (786-0 renal) | TGI (T-47D breast) | TGI (SNB-75 CNS) | TGI (HT29 colon) | TGI (NCI-H460 lung) | TGI (SK-MEL-2 melanoma) | TGI (HCC-2998 colon) | TGI (EKVX NSCLC) | TGI (DU-145 prostate) | TGI (UO-31 renal) | TGI (SF-268 CNS) | TGI (SF-295 CNS) | TGI (HOP-62 NSCLC) | TGI (SK-MEL-28 melanoma) | TGI (OVCAR-4 ovarian) | TGI (CAKI-1 renal) | TGI (OVCAR-5 ovarian) | TGI (SNB-19 CNS) | TGI (MCF7 breast) | TGI (SW-620 colon) | TGI (MDA-MB-435) | TGI (HS 578T breast)
9.32 µM: TGI (OVCAR-8 ovarian)
49.1 µM: TGI (A549 NSCLC)
17 µM: TGI (SR leukemia)
inactive: GI50 (COLO 205 colon) 13.1 µM | GI50 (TK-10 renal) 5.47 µM | GI50 (NCI-H226 lung) 9.2 µM | GI50 (M14 melanoma) 53.3 µM | GI50 (KM12 colon) 4.13 µM | GI50 (PC-3 prostate) 4.23 µM | GI50 (A498 renal) 27.4 µM | GI50 (A549 NSCLC) 5.56 µM | GI50 (IGROV1 ovarian) 4.83 µM | GI50 (SR leukemia) 0.721 µM | GI50 (786-0 renal) 8.83 µM | GI50 (T-47D breast) 9.26 µM | GI50 (NCI-H522 lung) 3.4 µM | GI50 (SF-539 CNS) 16.6 µM | GI50 (SNB-75 CNS) 35.6 µM | GI50 (HCT-116 colon) 18.5 µM | GI50 (BT-549 breast) 15.9 µM | GI50 (HT29 colon) 24.5 µM | GI50 (HCT-15 colon) 2.48 µM | GI50 (NCI-H460 lung) 12.9 µM | GI50 (HOP-92 NSCLC) 2.49 µM | GI50 (UACC-62 melanoma) 8.9 µM | GI50 (SK-MEL-2 melanoma) 20.9 µM | GI50 (U251 CNS) 4.68 µM | GI50 (MDA-MB-231 breast) 4.49 µM | GI50 (HCC-2998 colon) 40.8 µM | GI50 (ACHN renal) 1.82 µM | GI50 (EKVX NSCLC) 20.8 µM | GI50 (HL-60(TB) leukemia) 2.92 µM | GI50 (RPMI-8226 leukemia) 1.92 µM | GI50 (OVCAR-8 ovarian) 2.7 µM | GI50 (DU-145 prostate) 29.1 µM | GI50 (NCI/ADR-RES ovarian) 28.3 µM | GI50 (UO-31 renal) 5.7 µM | GI50 (MOLT-4 leukemia) 1.34 µM | GI50 (SF-268 CNS) 5.88 µM | GI50 (OVCAR-3 ovarian) 1.42 µM | GI50 (SK-MEL-5 melanoma) 4.67 µM | GI50 (SF-295 CNS) 10.3 µM | GI50 (HOP-62 NSCLC) 38.4 µM | GI50 (LOX IMVI melanoma) 3.98 µM | GI50 (SK-MEL-28 melanoma) 27.2 µM | GI50 (OVCAR-4 ovarian) 4.53 µM | GI50 (CCRF-CEM leukemia) 0.746 µM | GI50 (CAKI-1 renal) 2.2 µM | GI50 (SN12C renal) 3.85 µM | GI50 (OVCAR-5 ovarian) 43.8 µM | GI50 (SNB-19 CNS) 8.72 µM | GI50 (K-562 leukemia) 3.46 µM | GI50 (UACC-257 melanoma) 2.7 µM | GI50 (NCI-H23 lung) 10.9 µM | GI50 (MCF7 breast) 6.61 µM | GI50 (SW-620 colon) 4.3 µM | GI50 (MDA-MB-435) 14.5 µM | GI50 (HS 578T breast) 25.6 µM
30.2 µM: TGI (MDA-MB-231 breast)
31.2 µM: TGI (ACHN renal)
89.4 µM: TGI (NCI/ADR-RES ovarian)
7.65 µM: TGI (UACC-257 melanoma)
35.5 µM: TGI (HCT-116 colon)
51.6 µM: TGI (NCI-H23 lung)
93.5 µM: TGI (NCI-H226 lung)
51.1 µM: TGI (HCT-15 colon)
42.2 µM: TGI (KM12 colon)
